Assays:
[1] = test system: IKZF family of linage specific transcription factors; details: cited from earlier work
[2] = test system: IKZF family of linage specific transcription factors; test: activity against IKZF family transcription factors; type: cell-based
MM.1S line = test: activity in MM.1S line; type: cell-based; details: multiple myelome derived line
BRD4 = BRD4 (Homo sapiens, UniProt O60885); test: BRD4 immunoblot in MOLM-13 cells; details: MOLM-13, 4hr, western blot
BRD7 = target: T1, BRD7 (Homo sapiens, UniProt Q9NPI1); test: BRD7 immunoblot in MOLM-13 cells; details: MOLM-13, 4hr, western blot
T1 sequence (Q9NPI1 1-651): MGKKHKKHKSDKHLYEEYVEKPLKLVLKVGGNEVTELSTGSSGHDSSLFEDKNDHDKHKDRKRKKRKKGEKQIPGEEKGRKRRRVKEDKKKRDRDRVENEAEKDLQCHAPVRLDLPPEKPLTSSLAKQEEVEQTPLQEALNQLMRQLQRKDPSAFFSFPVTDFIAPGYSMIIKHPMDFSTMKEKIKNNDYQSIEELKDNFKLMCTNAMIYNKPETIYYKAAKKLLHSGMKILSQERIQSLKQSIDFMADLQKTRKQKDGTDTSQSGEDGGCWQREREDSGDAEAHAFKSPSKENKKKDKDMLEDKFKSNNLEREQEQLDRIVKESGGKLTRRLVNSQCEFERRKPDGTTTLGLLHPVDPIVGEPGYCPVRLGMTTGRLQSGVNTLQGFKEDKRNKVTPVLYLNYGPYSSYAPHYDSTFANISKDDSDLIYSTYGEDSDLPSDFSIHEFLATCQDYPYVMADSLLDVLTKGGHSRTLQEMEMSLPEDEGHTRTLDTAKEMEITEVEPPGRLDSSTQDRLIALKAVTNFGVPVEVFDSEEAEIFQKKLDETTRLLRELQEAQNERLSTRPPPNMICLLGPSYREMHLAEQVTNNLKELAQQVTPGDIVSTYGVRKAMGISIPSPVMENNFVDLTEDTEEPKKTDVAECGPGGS

[3] = test system: all cellular proteins in MOLM-13 cells; test: whole-cell lysate proteomics; type: cell-based, human; details: 100 nM for 2 hours
[4] = test system: human AML lines (EOL-1, MOLM-13, MV4;11); test: viability of human AML lines, 7 days; type: cell-based
MOLM-13 = test: viability of MOLM-13; type: cell-based, human; details: MOLM-13 transduced with wild type BRD9

| SMILES | activity against IKZF family, earlier report [1] | activity against IKZF family [2] | activity in MM.1S (MM.1S line) | off target degradation activity on BRD4 (BRD4) | off target degradation activity on BRD7 (BRD7) | change in BRD4 or BRD7 levels [3] | difference in levels of other proteins (99% of proteins) [3] | anti-proliferative effect ([4]; EOL-1, MOLM-13, MV4;11, 7 days) | half-maximal anti-proliferative concentration ([4]; human AML lines) | sensitivity with viral expression of exogenous wild type BRD9 (MOLM-13) |
| --- | --- | --- | --- | --- | --- | --- | --- | --- | --- | --- |
| Cc1sc2c(c1C)C(c1ccc(Cl)cc1)=N[C@@H](CC(=O)NCCCCNC(=O)COc1cccc3c1C(=O)N(C1CCC(=O)NC1=O)C3=O)c1nnc(C)n1-2 (stereo partly shown) [dBET-1] | not previously observed |  |  |  |  |  |  |  |  |  |
| COc1cc(-c2cn(C)c(=O)c3cnccc23)cc(OC)c1CN(C)CC(=O)NCCOCCOCCNc1cccc2c1C(=O)N(C1CCC(=O)NC1=O)C2=O (stereo not shown) [dBRD9] |  | retain activity | dBRD9 sensitive | not detectable | not detectable | no significant change | less than 0.30 fold | potent anti-proliferative effect | low nanomolar | shifted sensitivity, but to an intermediate degree |

Reference: PMC5967236 (Angewandte Chemie (International ed. in English), 2017)
